Measurements: US6569638B1, “Method for screening compounds for the treatment of neoplasia” (Cell Pathways, Inc, priority 2000, dated 2003)

Key:
Experiment in all cases: Neutral red growth inhibition
Assay type in all cases: cell-based, human
K-562 = conditions: K-562, Leukemia, HCl salt
Protocol: (§1) Compound B's activity is not confined to activity against colon cancer cell lines or animal models of colon cancer. It has a broad range of anti-neoplastic effects in various neoplastic cell lines. Various types of human cancer cell lines were propagated under sterile conditions in RPMI 1640 medium with 10% fetal bovine serum, 2 mM L-glutamine and sodium bicarbonate. To determine growth inhibitory effects of Compound B, cells were seeded in 96-well plates at a density of 1000 cells per well. […] The effect of the drug on tumor cell growth was determined using the neutral red cytotoxicity assay following five days of continuous treatment. Neutral red is a dye that is selectively taken up by viable cells by an ATP-dependent transport mechanism.

RPMI-8226 = conditions: RPMI-8226, Myeloma, HCl salt
Protocol: as §1

PANC-1 = conditions: PANC-1, Pancreas, HCl salt
Protocol: as §1

CC1=C(CC(=O)NCc2ccccc2)c2cc(F)ccc2/C1=C\c1ccncc1.Cl [Compound B, (Z)-5-fluoro-2-methyl-(4-pyridylidene)-3-(N-benzyl)indenylacetamide hydrochloride]
GI50 (K-562): 1800 nM | GI50 (RPMI-8226): 1200 nM | GI50 (PANC-1): 2200 nM
